Measured values: US8034839B2, “Method of treating ocular allergy” (Alcon Research, Ltd., priority 2005, dated 2011)
Marks after values point to notes of the source that are not given here.

Key:
[1] = test system: conjunctival EPO activity; assay: Mouse late-phase allergy model (OVA-induced allergic conjunctivitis), conjunctival EPO activity assay; type: in vivo, mouse (female BALB/c); conditions: for EPO Activity (ng/ml/mg tissue) ± S.D.: single 5 μl topical drop O.D. BID, conjunctival EPO activity at 24 hrs post-challenge, mean ± S.D.
Experimental: Active Sensitization and Induction of Allergic Conjunctivitis (AC)
Female BALB/c mice, 6 to 9 months old (Charles River Labs), were given a single intraperitoneal injection of 100 μg chicken ovalbumin (OVA; Sigma) which had been absorbed to 5 mg of alum (Pierce Chemical) as an adjuvant or 5 mg alum only (unsensitized group). On day 14 after sensitization, all mice were challenged with a single topical drop O.D. of 1 mg OVA dissolved in 5 μl PBS.
Drugs or vehicles were administered to mice as a single 5 μl drop O.D. at 60 min before challenge and again at 16 hrs after challenge (BID dosing). Mice were euthanized at 24 hrs after challenge.
Mice were euthanized at 24 hrs after topical challenge and upper and lower eyelids containing palpebral conjunctiva were excised and immediately frozen on dry ice. Samples were weighed frozen and then thawed and homogenized on ice in 2 ml of 50 mM HEPES buffer, pH 6.5. Samples were pelleted at 4000 rpm for 20 min at 4° C. and supernatants were discarded. To each pellet, 1 ml of 0.5% cetyltrimethylammonium chloride (CTAC) was added and samples were vortexed vigorously. Samples were then subjected to three freeze-thaw cycles between −80° C. and 37° C. After final thaw, samples were sonicated on ice for 15-30 sec and pelleted at 4000 rpm for 20 min at 4° C. EPO activity assay was performed on supernatants.
For the EPO activity assay, 75 μl of each sample were added in triplicate to wells of a 96-well clear flat-bottomed microplate. 75 μl of EPO substrate solution [6 mM o-phenylenediamine (OPD), 8.8 mM H2O2, and 6 mM KBr in 50 mM HEPES, pH 6.5] were then added to each well using a multichannel pipetter. The reaction was allowed to run for 3 min and was stopped by addition of 150 μl of 4M H2SO4. Optical density at 490 nm (OD490) was read on a Bio-Tek Synergy. HT plate reader. […] 75 μl triplicates of each standard were used on each run of the assay. Linear regression was determined for the resulting plot of [EPO] vs OD490. Final [EPO] in each sample was determined by solving for x in the equation y=m*x+b, where y=OD490, m=[…].
Groups of means were compared using Student's unpaired t-test or Dunnett's t-test where appropriate. […] Data are expressed as mean±standard deviation.

neutrophils = conditions: disclosed by Lee et al., Biochem. Biophys. Res. Commun. 1991; cited from earlier work

SMILES	EPO Activity (ng/ml/mg tissue) ± S.D. ([1]; dose 0.1%)	inhibition of conjunctival EPO activity (in words) ([1]; all three doses (0.001%, 0.01%, and 0.1% solutions), 24 hrs post-challenge, efficacy comparable to 0.1% dexamethasone)	EPO Activity (ng/ml/mg tissue) ± S.D. ([1]; dose 0.001%)	EPO Activity (ng/ml/mg tissue) ± S.D. ([1]; dose 0.01%)	inhibition of LTB4-induced chemotaxis of neutrophils (neutrophils)
C[C@@H]1C[C@H]2[C@@H]3CCC4=CC(=O)C=C[C@]4(C)[C@@]3(F)[C@@H](O)C[C@]2(C)[C@@]1(O)C(=O)CO [dexamethasone, reference compound]	4.0 ± 0.5^c ng/ml/mg tissue				
COC(=O)CCC[C@H](O)[C@H](O)CO [compound 1]	3.2 ± 1.0^c,d ng/ml/mg tissue	significantly inhibited	5.2 ± 2.5^c,d ng/ml/mg tissue	4.8 ± 1.2^c,d ng/ml/mg tissue	as potently as lipoxin A4
CCCCC[C@H](O)[C@H](O)CO [compound 2]					as potently as lipoxin A4
CCCCC[C@H](O)/C=C/C=C\C=C\C=C\[C@@H](O)[C@@H](O)CCCC(=O)O [lipoxin A4, Lipoxin A4, reference compound]					inhibit
